In patent US20260029420A1, “ANTI-CB2 ANTIBODIES AND THEIR USE IN A FLOW CYTOMETRY ASSAY TO MEASURE CELL SURFACE CB2 EXPRESSION” (Hoffmann-La Roche Inc., priority 2022, published 2026):
Several values for one entry are separate records, joined by “and”; a condition that tells them apart may be missing. Equal entries are not always repeated. Where two headings read alike, the source gives them in different places.

Tests used:
CB2 [1] = target: T1, CB2 (Homo sapiens, UniProt P34972); experiment: CB2 internalization flow cytometry assay in whole blood of diabetic patients and matched healthy participants; assay type: cell-based
T1 construct: measured in whole blood samples from nine different healthy human volunteers of working-age; endogenous in cells; host or cells: B-cells (and basophils and other leukocytes) in human whole blood
Excerpt: FIGS. 9A-9E: IC50 value determination for RG7774 in different cell sub-populations in whole blood of diabetic patients and matched healthy participants. Median Fluorescence intensity (MFI)±SD of CB2 surface expression in diabetic patients (open dots, dotted line) and age-matched healthy participants (closed dots, continuous line) after exposure to increasing concentrations of RG7774. Mean MFI for individual data points is based on duplicate measures FIG. 9A: B-cells (CD45^+ CD3^− CD14^− CD19^+). FIG. 9B: Basophils (CD45^+ CD3^− CD14^− CD19^− CD193^+ IgE^+). FIG. 9C: Monocytes (CD45^+ CD3^− CD14^+). FIG. 9D: T-cells (CD45^+ CD3^+ CD14^−). FIG. 9E: NK cells (CD45^+ CD3^− CD14^− CD19^− CD193^− IgE^− CD16^+ CD56^+).
In order to understand, the exposure-response relationship for a drug-induced CB2 internalization on blood cell populations, in particular on B-cells and Basophils, whole blood of nine different diabetic type 1 and 2 patients and eight demographically and age-matched healthy participants were treated with 8 compound concentrations in duplicates to determine the IC50 of RG7774.
Human whole blood from diabetic patients and age-matched healthy participants was incubated with RG7774 for 1 hour at 37° C. followed by incubation with the anti-human CB2 Ab 1/622. The expression of CB2 on the surface of the different blood cell types was analyzed using the lineage marker mix specific for B-cells, Basophils, T-cells, NK-cells and Monocytes. MFI values at 0 μM RG7774 were set as 100% baseline receptor expression for each cell type.

CB2 [2] = target: T2, CB2 (Macaca fascicularis, UniProt G7NVV5); experiment: In vivo CB2 internalization on B-cells upon oral dosing in Cynomolgus monkeys; set-up: species or system Cynomolgus monkey
Experimental: FIG. 11: In vivo feasibility for the new CB2 flow cytometry assay to monitor pharmacodynamic response in vitro on B-cells upon oral dosing. Six healthy Cynomolgus monkeys were dosed with three different doses of an oral micro suspension of RG7774 with two animals per dose group. Blood drawn at different time points was incubated with the anti-human CB2 antibody 1/622. The expression of CB2 on the surface of B-cells was analyzed using a lineage marker mix specific for B-cells and T-cells. The B/T-cell CB2 MFI ratio was calculated and normalized to baseline. 0 μM served as 100% baseline receptor expression. For the animal Mina, blood samples could only be taken up to 1 hour after experimental start, since the animal had to be remove of the study due to a rectal prolapse.
FIG. 12: Single dose in vivo study monitoring the pharmacodynomic effect of RG7774 on CB2 expression on B-cells in Cynomolgus upon oral dosing. Three healthy cynomolgus monkeys were dosed with 100 mg/kg of the CB2 agonist RG7774. The blood draw at different time points was followed by the incubation with the anti-human CB2 antibody 1/622. The expression of CB2 on the surface of B-cells was analyzed using a lineage marker mix specific for B-cells and T-cells. The B/T-cell CB2 MFI ratio was calculated and normalized to baseline. 0 μM served as 100% baseline receptor expression. […] Due to a storage effect of the antibody working dilution (5 μg/sample) of the anti-human CB2 Ab 1/622 the 4 and 7 hours' time point have been excluded. The working dilution of this antibody is only stable for 2 hours on ice.
The feasibility of applying the newly developed CB2 flow cytometry assay as an assay to monitor pharmacodynamic response to oral doses of RG7774 was evaluated in three groups of two Cynomolgus monkeys. Upon oral administration of three different single doses of a micro suspension of 0.5, 5 and 100 mg/kg RG7774 respectively, blood samples from all animals were taken at the selected time points: 0 (pre-dose) and 0.25, 0.5, 1, 2, 4, 7 and 24 h post dosing and subjected to the CB2 flow cytometry analysis (FIG. 11).
In this in vivo cyno study three cynomolgus monkeys were orally dosed with 100 mg/kg of RG7774. Blood sampling for TE-assay was performed at selected time points: −96, −24 (both time points not shown), 0 (predose) and 0.25, 0.5, 1, 2, 4, 7, 24, 31, 48 and 72 hours post-dosing (FIG. 12).

CB2 [3] = target: T2, CB2; experiment: In vitro CB2 internalization flow cytometry assay in Cynomolgus whole blood; assay type: cell-based, Cynomolgus monkey
Experimental: FIG. 10: In vitro IC50 determination of CB2 internalization on B-cells in whole blood from Cynomolgus monkeys. Cynomolgus whole blood was incubated with RG7774 for 1 hour at 37° C. followed by incubation with the anti-human CB2 antibody 1/622. The expression of CB2 on the surface of B-cells was analyzed using a lineage marker mix specific for B-cells and T-cells. The B/T-cell CB2 MFI ratio was calculated and normalized to baseline. 0 μM was set as 100% baseline receptor expression.
In order to establish whether the CB2 surface assay is cross-reactive in Cynomolgus monkey, blood obtained from five different healthy Cynomolgus monkey has been tested in vitro and the individual IC50 values for RG7774 and maximum reduction of CB2 surface expression in whole blood determined using 8 different compound concentrations in duplicates (FIG. 10, Table 8).

[4] = individual donors, DM type 1, value in parentheses = excluded outlier subject
[5] = individual donors, matched healthy participants (HP)

T2 sequence (G7NVV5 1-360): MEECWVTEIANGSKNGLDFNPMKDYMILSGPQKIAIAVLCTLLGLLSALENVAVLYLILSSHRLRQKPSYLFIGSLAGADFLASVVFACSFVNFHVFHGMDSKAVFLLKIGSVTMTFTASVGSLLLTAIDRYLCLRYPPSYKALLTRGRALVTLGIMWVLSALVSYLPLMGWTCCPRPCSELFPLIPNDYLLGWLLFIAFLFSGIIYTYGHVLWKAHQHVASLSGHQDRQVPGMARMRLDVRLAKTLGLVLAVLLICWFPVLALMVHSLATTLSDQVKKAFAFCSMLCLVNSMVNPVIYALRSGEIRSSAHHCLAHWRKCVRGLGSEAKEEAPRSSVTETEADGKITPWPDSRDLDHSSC
T1 sequence (P34972 whole entry): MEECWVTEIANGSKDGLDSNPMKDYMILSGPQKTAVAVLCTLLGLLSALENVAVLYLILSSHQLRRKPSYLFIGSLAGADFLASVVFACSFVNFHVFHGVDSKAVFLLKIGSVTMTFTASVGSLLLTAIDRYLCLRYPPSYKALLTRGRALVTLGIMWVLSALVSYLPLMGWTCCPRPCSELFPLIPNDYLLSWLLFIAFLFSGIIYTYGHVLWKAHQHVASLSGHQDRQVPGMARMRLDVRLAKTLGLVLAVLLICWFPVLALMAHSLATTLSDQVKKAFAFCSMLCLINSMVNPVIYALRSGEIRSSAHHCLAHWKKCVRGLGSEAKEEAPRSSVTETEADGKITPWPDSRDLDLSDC

SMILES: Cn1nnnc1Cn1nnc2c(N3CC[C@H](O)C3)nc(C(C)(C)C)nc21 [RG7774, (S)-1-[5-tert-Butyl-3-(1-methyl-1H-tetrazol-5-ylmethyl)-3H-[1,2,3]triazolo [4,5-d]pyrimidin-7-yl]-pyrrolidin-3-ol]
- Emax (CB2 [1]; Basophils, both groups on average, read-out: Emax): ~60%
- Emax (CB2 [1]; DM (all) (n = 8), read-out: Mean Emax (Basophils) ± SD per diagnosis): 60.4 ± 9.5%
- Emax (CB2 [1]; DM type 1 (n = 3), read-out: Mean Emax (B-cells) ± SD per diagnosis): 60.5 ± 2.8%
- Emax (CB2 [1]; DM type 1 (n = 3), read-out: Mean Emax (Basophils) ± SD per diagnosis): 65.9 ± 2.2%
- Emax (CB2 [1]; DM type 2 (n = 5), read-out: Mean Emax (B-cells) ± SD per diagnosis): 53.6 ± 14.5%
- Emax (CB2 [1]; DM type 2 (n = 5), read-out: Mean Emax (Basophils) ± SD per diagnosis): 57 ± 10.9%
- Fold change vs HPs of mean IC50 (CB2 on B-cells) (CB2 [1]; DM vs working-age healthy participants): 1.8x
- IC50 (CB2 [1]; Individual IC50 (B-cells), individual donors, DM type 1, value in parentheses = excluded outlier subject): 225 nM and 126 nM and 1060 nM
- IC50 (CB2 [1]; Individual IC50 (B-cells), individual donors, DM type 2): 335 nM and 57.9 nM
- IC50 (CB2 [1]; Individual IC50 (Basophils), individual donors, DM type 1, value in parentheses = excluded outlier subject): 72 nM and 38.1 nM and 31.7 nM and 154 nM
- IC50 (CB2 [1]; Individual IC50 (Basophils), individual donors, DM type 2): 61 nM and 25.7 nM and 54.6 nM and 22.9 nM and 44.4 nM
- IC50 (CB2 [1]; Individual IC50 (Basophils), individual donors, matched healthy participants (HP)): 22.1 nM and 23.5 nM and 26.5 nM and 58.1 nM and 55.8 nM and 77.3 nM and 80.1 nM
- Emax (CB2 [1]; Matched HPs (n = 8), read-out: Mean Emax (Basophils) ± SD per diagnosis): 59.3 ± 4.5%
- Fold change vs HPs of mean IC50 (CB2 on B-cells) (CB2 [1]; Matched Healthy vs working-age healthy participants): 2.6 x
- IC50 (CB2 [1]; Mean IC50 (Basophils) ± SD per diagnosis, DM (all) (n = 8)): 43.8 ± 17.5 nM
- IC50 (CB2 [1]; Mean IC50 (Basophils) ± SD per diagnosis, DM type 1 (n = 3)): 47.2 ± 21.7 nM
- IC50 (CB2 [1]; Mean IC50 (Basophils) ± SD per diagnosis, DM type 2 (n = 5)): 41.7 ± 17 nM
- IC50 (CB2 [1]; Mean IC50 (Basophils) ± SD per diagnosis, Matched HPs (n = 8)): 57.2 ± 32.8 nM
- fold higher exposure to achieve half maximum internalization of the CB2 on B-cells (CB2 [1]; diabetic patients and matched healthy participants relative to working-age healthy participants): 2-3 fold
- Individual Emax (B-cells) (CB2 [1]; [4]): 62.79% and (59.35) %
- Individual Emax (Basophils) (CB2 [1]; [4]): 68.43% and 64.41% and (57.09) %
- Emax (CB2 [1]; individual donors, DM type 1, value in parentheses = excluded outlier subject, read-out: Individual Emax (B-cells)): 62%
- Emax (CB2 [1]; individual donors, DM type 1, value in parentheses = excluded outlier subject, read-out: Individual Emax (Basophils)): 64.9%
- Individual Emax (B-cells) (CB2 [1]; individual donors, DM type 2): 34.08% and 74.13% and 50.35% and 58.24% and 51.25%
- Individual Emax (Basophils) (CB2 [1]; individual donors, DM type 2): 41.64% and 62.91% and 54.19% and 70.94%
- Individual Emax (B-cells) (CB2 [1]; [5]): 52.88% and 51.18% and 52.64% and 70.18% and 52.40% and 60.22% and 49.16% and 57.11%
- Individual Emax (Basophils) (CB2 [1]; [5]): 64.04% and 57.73% and 54% and 58.78% and 62.7%
- Emax (CB2 [1]; individual donors, matched healthy participants (HP), read-out: Individual Emax (Basophils)): 66.1%
- onset of pharmacodynamic effect on CB2 surface expression on B-cells (CB2 [2]; 100 mg/kg oral): ≤ 15 min
- duration of reduction of CB2 expression on B-cells (CB2 [2]; single oral doses 0.5, 5 and 100 mg/kg): around 24 hours
- reduction relative to individual baseline CB2 expression on B-cells (CB2 [2]; single oral doses 0.5, 5 and 100 mg/kg micro suspension): dose dependent reduction
- responder status in vivo (CB2 [2]; three cynomolgus monkeys, 100 mg/kg oral): One out of three cynos is a non-responder
- reduction of the CB2 expression (CB2 [3]; T-cells, Monocytes and Granulocytes (data not shown)): has not been observed
- responder status in vitro (CB2 [3]; five Cynomolgus monkeys): One Cynomolgus out of five is a non-responder
